Reference: US8268990B2, “Compounds” (AstraZeneca AB, priority 2007, dated 2012)

Each molecule was assayed against T1, Recombinant human TLR7 (Homo sapiens, UniProt Q9NYK1) (assay: Human TLR7 Assay (SEAP reporter)). Conditions: HEK293 cell line stably expressing human TLR7 and pNiFty2-SEAP reporter; SEAP induction after overnight incubation at 37° C., 0.1% (v/v) DMSO.
T1 construct: expressed in transfected cells; host or cells: HEK293 cell line stably expressing the pNiFty2-SEAP reporter plasmid; TLR7 in vector pUNO, blasticidin selection
T1 sequence (Q9NYK1 27-1049): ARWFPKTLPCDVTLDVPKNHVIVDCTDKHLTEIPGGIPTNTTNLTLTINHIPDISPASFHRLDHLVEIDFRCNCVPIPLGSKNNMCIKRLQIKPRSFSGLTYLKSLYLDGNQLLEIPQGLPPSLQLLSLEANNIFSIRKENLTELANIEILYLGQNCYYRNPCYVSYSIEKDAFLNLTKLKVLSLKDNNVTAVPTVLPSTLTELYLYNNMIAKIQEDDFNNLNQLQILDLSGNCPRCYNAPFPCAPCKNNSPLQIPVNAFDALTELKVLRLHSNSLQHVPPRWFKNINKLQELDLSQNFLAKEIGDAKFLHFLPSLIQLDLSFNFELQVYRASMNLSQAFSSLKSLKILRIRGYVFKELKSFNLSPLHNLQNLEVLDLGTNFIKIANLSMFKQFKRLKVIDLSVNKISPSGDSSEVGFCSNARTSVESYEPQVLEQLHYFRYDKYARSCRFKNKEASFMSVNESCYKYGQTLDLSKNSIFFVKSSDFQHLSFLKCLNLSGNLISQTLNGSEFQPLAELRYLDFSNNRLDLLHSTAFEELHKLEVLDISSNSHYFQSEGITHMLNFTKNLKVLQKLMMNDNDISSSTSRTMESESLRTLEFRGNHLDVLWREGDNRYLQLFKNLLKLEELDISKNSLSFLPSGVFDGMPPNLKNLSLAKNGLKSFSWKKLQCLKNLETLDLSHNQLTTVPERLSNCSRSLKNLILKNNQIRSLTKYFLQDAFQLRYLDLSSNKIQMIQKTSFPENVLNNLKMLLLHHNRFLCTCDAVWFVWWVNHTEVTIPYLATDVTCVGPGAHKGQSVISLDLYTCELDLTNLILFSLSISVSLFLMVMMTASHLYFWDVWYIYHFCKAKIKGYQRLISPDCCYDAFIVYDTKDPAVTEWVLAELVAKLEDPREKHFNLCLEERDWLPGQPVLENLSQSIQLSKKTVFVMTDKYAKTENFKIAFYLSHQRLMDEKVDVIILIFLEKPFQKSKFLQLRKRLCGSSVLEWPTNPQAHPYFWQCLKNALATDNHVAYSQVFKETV
Type: cell-based
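Further: SEAP driven by an NFkB-responsive composite promoter, pEC50 read at half of each compound's own maximal SEAP induction.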

| Structure (SMILES) | EC50 |
| --- | --- |
| CCCCNc1nc(N)nc(C)c1Sc1ccc(CC(=O)OCC2CCN(C)CC2)cc1 [Example 95, (1-Methylpiperidin-4-yl)methyl 2-(4-(2-amino-4-(butylamino)-6-methylpyrimidin-5-ylthio)phenyl)acetate] | 63.1 nM |
| CCCCNc1nc(N)nc(C)c1Sc1ccc(CC(=O)OCCCCN2CCCC2)cc1 [Example 96, 4-(Pyrrolidin-1-yl)butyl 2-(4-(2-amino-4-(butylamino)-6-methylpyrimidin-5-ylthio)phenyl)acetate] | 50.1 nM |
| CCCCNc1nc(N)nc(C)c1Cc1cc(CC(=O)OCCCCN(C)C)ccc1OC [Example 97, 4-(Dimethylamino)butyl 2-(3-((2-amino-4-(butylamino)-6-methylpyrimidin-5-yl)methyl)-4-methoxyphenyl)acetate] | 31.6 nM |
| CCCCNc1nc(N)nc(C)c1Cc1cc(CC(=O)OC)ccc1OC [Example 98, Methyl 2-(3-((2-amino-4-(butylamino)-6-methylpyrimidin-5-yl)methyl)-4-methoxyphenyl)acetate] | 50.1 nM |
| CCCCNc1nc(N)nc(C)c1Cc1cc(CC(=O)OC)ccc1O [Example 99, Methyl 2-(3-((2-amino-4-(butylamino)-6-methylpyrimidin-5-yl)methyl)-4-hydroxyphenyl)acetate] | 79.4 nM |
| CCC[C@@H](CCO)Nc1nc(N)nc(C)c1Cc1ccc(CC(=O)OCCC2CCN(C)CC2)cc1F [Example 100, (S)-2-(1-Methylpiperidin-4-yl)ethyl 2-(4-((2-amino-4-(1-hydroxyhexan-3-ylamino)-6-methylpyrimidin-5-yl)methyl)-3-fluorophenyl)acetate] | 31.6 nM |
| CCCCNc1nc(N)nc(C)c1Cc1ccc(CC(=O)OCCc2scnc2C)cc1OC [Example 101, 2-(4-Methylthiazol-5-yl)ethyl 2-(4-((2-amino-4-(butylamino)-6-methylpyrimidin-5-yl)methyl)-3-methoxyphenyl)acetate] | 39.8 nM |
| CCCCNc1nc(N)nc(C)c1Cc1ccc(CC(=O)OCCCCN(C)C)cc1O [Example 102, 4-(Dimethylamino)butyl 2-(4-((2-amino-4-(butylamino)-6-methylpyrimidin-5-yl)methyl)-3-hydroxyphenyl)acetate] | 100 nM |
| CCCCNc1nc(N)nc(C)c1Cc1ccc(CC(=O)OCC2CCN(C)CC2)cc1O [Example 103, (1-Methylpiperidin-4-yl)methyl 2-(4-((2-amino-4-(butylamino)-6-methylpyrimidin-5-yl)methyl)-3-hydroxyphenyl)acetate] | 126 nM |
